In the test the target is T1, mTOR (Homo sapiens, UniProt P42345).
T1 construct: FLAG; made in house
T1 sequence (P42345 1362-2549): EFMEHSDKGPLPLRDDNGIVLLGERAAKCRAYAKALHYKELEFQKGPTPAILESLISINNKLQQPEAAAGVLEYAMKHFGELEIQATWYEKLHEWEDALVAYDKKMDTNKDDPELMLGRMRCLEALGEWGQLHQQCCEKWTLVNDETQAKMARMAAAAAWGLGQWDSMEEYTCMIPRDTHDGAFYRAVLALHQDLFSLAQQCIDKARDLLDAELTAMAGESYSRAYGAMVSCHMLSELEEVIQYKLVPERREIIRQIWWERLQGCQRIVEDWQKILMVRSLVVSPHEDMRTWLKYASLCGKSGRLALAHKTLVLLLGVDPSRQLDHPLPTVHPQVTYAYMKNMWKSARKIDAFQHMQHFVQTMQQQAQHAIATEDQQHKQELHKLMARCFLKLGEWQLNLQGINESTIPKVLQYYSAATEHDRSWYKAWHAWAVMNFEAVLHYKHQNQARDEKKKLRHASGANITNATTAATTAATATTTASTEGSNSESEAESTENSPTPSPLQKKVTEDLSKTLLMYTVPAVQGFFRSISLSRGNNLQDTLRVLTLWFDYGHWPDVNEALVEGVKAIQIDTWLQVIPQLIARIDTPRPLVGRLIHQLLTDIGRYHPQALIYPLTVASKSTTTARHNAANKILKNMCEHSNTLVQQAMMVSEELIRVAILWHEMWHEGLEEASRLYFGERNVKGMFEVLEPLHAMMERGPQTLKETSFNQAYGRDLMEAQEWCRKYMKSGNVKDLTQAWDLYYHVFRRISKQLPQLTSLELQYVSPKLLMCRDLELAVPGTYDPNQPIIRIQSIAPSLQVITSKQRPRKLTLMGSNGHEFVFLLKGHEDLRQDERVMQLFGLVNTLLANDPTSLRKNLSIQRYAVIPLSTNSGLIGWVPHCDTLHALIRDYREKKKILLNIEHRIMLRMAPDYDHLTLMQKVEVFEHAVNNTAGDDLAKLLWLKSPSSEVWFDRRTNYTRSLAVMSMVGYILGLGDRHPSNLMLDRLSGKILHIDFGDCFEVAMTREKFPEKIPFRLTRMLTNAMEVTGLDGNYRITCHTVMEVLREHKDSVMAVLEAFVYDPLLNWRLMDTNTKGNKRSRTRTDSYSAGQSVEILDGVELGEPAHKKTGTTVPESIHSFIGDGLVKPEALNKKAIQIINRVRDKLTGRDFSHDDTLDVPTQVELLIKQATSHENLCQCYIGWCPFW
Briefly: In Vitro mTOR Kinase Assay (Echo), Test (a)(ii). Type of test: biochemical. Conditions: table of enzyme assay Test (a)(ii); read-out: Test (a)(ii) IC50. The method, boiled down:
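Inhibition of truncated mTOR (1362-2549, FLAG-tagged, purified from stably transfected HEK293 cells) is measured as reduced AlphaScreen signal from a phospho-T389-recognising antibody bound to the biotinylated peptide product. Kinase incubation lasts 2 hours at room temperature. Potency is given as IC50.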
In the case of `Cc1csc(S(=O)(=O)C2(c3cc(N4CCOCC4)nc(-c4ccc(NC(=O)NC(C)C)cc4)n3)CC2)n1` [Example 42h, 1-[4-[4-[1-[(4-methyl-1,3-thiazol-2-yl)sulfonyl]cyclopropyl]-6-morpholin-4-ylpyrimidin-2-yl]phenyl]-3-propan-2-ylurea], the IC50 came out at 4.12 nM.

As to `C[C@H]1COCCN1c1cc(C2(S(=O)(=O)CCCO)CCC2)nc(-c2ccc(NC(=O)NC3CC3)cc2)n1` [Example 43, 3-Cyclopropyl-1-[4-[4-[1-(3-hydroxypropylsulfonyl)cyclobutyl]-6-[(3S)-3-methylmorpholin-4-yl]pyrimidin-2-yl]phenyl]urea], the IC50 was determined as 5.39 nM.

In the case of `CNC(=O)Nc1ccc(-c2nc(N3CCOC[C@@H]3C)cc(C3(S(=O)(=O)CCCO)CCC3)n2)cc1` [Example 43a, 1-[4-[4-[1-(3-hydroxypropylsulfonyl)cyclobu-tyl]-6-[(3S)-3-methylmorpholin-4-yl]pyrimidin-2-yl]phenyl]-3-methylurea], the IC50 is 4.79 nM. As for `C[C@H]1COCCN1c1cc(C2(S(=O)(=O)CCCO)CCC2)nc(-c2ccc(NC(=O)NCCO)cc2)n1` [Example 43b, 3-(2-hydroxyethyl)-1-[4-[4-[1-(3-hydroxypropylsulfonyl)cyclobu-tyl]-6-[(3S)-3-methylmorpholin-4-yl]pyrimidin-2-yl]phenyl]urea], the figure is 7.51 nM.

As to `C[C@H]1COCCN1c1cc(C2(S(=O)(=O)CCCO)CCC2)nc(-c2ccc(NC(=O)NCCC#N)cc2)n1` [Example 43c, 3-(2-cyanoethyl)-1-[4-[4-[1-(3-hydroxypropylsulfonyl)cyclobu-tyl]-6-[(3S)-3-methylmorpholin-4-yl]pyrimidin-2-yl]phenyl]urea], the IC50 came out at 28.8 nM. In the case of `C[C@H]1COCCN1c1cc(C2(S(=O)(=O)CCCO)CCC2)nc(-c2ccc(NC(=O)Nc3cnn(C)c3)cc2)n1` [Example 43d, 1-[4-[4-[1-(3-hydroxypropylsulfonyl)cyclobu-tyl]-6-[(3S)-3-methylmorpholin-4-yl]pyrimidin-2-yl]phenyl]-3-(1-methylpyrazol-4-yl)urea], the IC50 was 11 nM. As for `C[C@H]1COCCN1c1cc(C2(S(=O)(=O)CCCO)CCC2)nc(-c2ccc(NC(=O)NCc3ncc[nH]3)cc2)n1` [Example 43e, 1-[4-[4-[1-(3-hydroxypropylsulfonyl)cyclobu-tyl]-6-[(3S)-3-methylmorpholin-4-yl]pyrimidin-2-yl]phenyl]-3-(1H-imidazol-2-ylmethyl)urea], the figure is 188 nM. `C[C@H]1COCCN1c1cc(C2(S(=O)(=O)CCCO)CCCC2)nc(-c2ccc(NC(=O)NC3CC3)cc2)n1` [Example 43f, 3-cyclopropyl-1-[4-[4-[1-(3-hydroxypropyl-sulfonyl)cyclopen-tyl]-6-[(3S)-3-methylmorpholin-4-yl]pyrimidin-2-yl]phenyl]urea]: the IC50 stood at 39.2 nM. The same measure for `C[C@H]1COCCN1c1cc(C2(S(=O)(=O)CCCO)CCCC2)nc(-c2ccc(NC(=O)NCCO)cc2)n1` [Example 43g, 3-(2-hydroxyethyl)-1-[4-[4-[1-(3-hydroxypropyl-sulfonyl)cyclopen-tyl]-6-[(3S)-3-methylmorpholin-4-yl]pyrimidin-2-yl]phenyl]urea]: 29 nM; for `C[C@H]1COCCN1c1cc(C2(S(=O)(=O)CCCO)CCCC2)nc(-c2ccc(NC(=O)NCCC#N)cc2)n1` [Example 43h, 3-(2-cyanoethyl)-1-[4-[4-[1-(3-hydroxypropyl-sulfonyl)cyclopen-tyl]-6-[(3S)-3-methylmorpholin-4-yl]pyrimidin-2-yl]phenyl]urea]: 133 nM. On to `C[C@H]1COCCN1c1cc(C2(S(=O)(=O)CCCO)CCCC2)nc(-c2ccc(NC(=O)NCCCO)cc2)n1` [Example 43i, 3-(3-hydroxypropyl)-1-[4-[4-[1-(3-hydroxypropyl-sulfonyl)cyclopen-tyl]-6-[(3S)-3-methylmorpholin-4-yl]pyrimidin-2-yl]phenyl]urea], for which the IC50 was determined as 102 nM. As for `CCNC(=O)Nc1ccc(-c2nc(N3CCOC[C@@H]3C)cc(C3(S(=O)(=O)CCCO)CCC3)n2)cc1` [Example 43j, 1-ethyl-3-[4-[4-[1-(3-hydroxypropylsulfonyl)cyclobu-tyl]-6-[(3S)-3-methylmorpholin-4-yl]pyrimidin-2-yl]phenyl]urea], the figure is 12 nM. As for `CCCNC(=O)Nc1ccc(-c2nc(N3CCOC[C@@H]3C)cc(C3(S(=O)(=O)CCCO)CCC3)n2)cc1` [Example 43k, 3-[4-[4-[1-(3-hydroxypropylsulfonyl)cyclobu-tyl]-6-[(3S)-3-methylmorpholin-4-yl]pyrimidin-2-yl]phenyl]-1-propylurea], the 50% inhibitory concentration (IC50) is 25.7 nM.

For the molecule `C[C@H]1COCCN1c1cc(C2(S(=O)(=O)CCCO)CCC2)nc(-c2ccc(NC(=O)NCCCO)cc2)n1` [Example 43l, 3-(3-hydroxypropyl)-1-[4-[4-[1-(3-hydroxypropylsulfonyl)cyclobu-tyl]-6-[(3S)-3-methylmorpholin-4-yl]pyrimidin-2-yl]phenyl]urea], the 50% inhibitory concentration (IC50) was determined as 23.6 nM.

In the case of `C[C@H]1COCCN1c1cc(C2(S(=O)(=O)CCCO)CCC2)nc(-c2ccc(NC(=O)Nc3ccon3)cc2)n1` [Example 43m, 1-[4-[4-[1-(3-hydroxypropylsulfonyl)cyclobu-tyl]-6-[(3S)-3-methylmorpholin-4-yl]pyrimidin-2-yl]phenyl]-3-(1,2-oxazol-3-yl)urea], the 50% inhibitory concentration (IC50) amounted to 5.31 nM. The same measure for `C[C@H]1COCCN1c1cc(C2(S(=O)(=O)CCCO)CCC2)nc(-c2ccc(NC(=O)NCCF)cc2)n1` [Example 43n, 3-(2-fluoroethyl)-1-[4-[4-[1-(3-hydroxypropylsulfonyl)cyclobu-tyl]-6-[(3S)-3-methylmorpholin-4-yl]pyrimidin-2-yl]phenyl]urea]: 11.9 nM; for `C[C@H]1COCCN1c1cc(C2(S(=O)(=O)CCCO)CCC2)nc(-c2ccc(NC(=O)NCC(F)F)cc2)n1` [Example 43o, 3-(2,2-difluoroethyl)-1-[4-[4-[1-(3-hydroxypropylsulfonyl)cyclobu-tyl]-6-[(3S)-3-methylmorpholin-4-yl]pyrimidin-2-yl]phenyl]urea]: 15.7 nM. As for `C[C@H]1COCCN1c1cc(C2(S(=O)(=O)CCCO)CCC2)nc(-c2ccc(NC(=O)NC(C)(C)CO)cc2)n1` [Example 43p, 3-(1-hydroxy-2-methylpropan-2-yl)-1-[4-[4-[1-(3-hydroxypropylsulfonyl)cyclobu-tyl]-6-[(3S)-3-methylmorpholin-4-yl]pyrimidin-2-yl]phenyl]urea], the figure is 55.5 nM; as for `C[C@@H](CO)NC(=O)Nc1ccc(-c2nc(N3CCOC[C@@H]3C)cc(C3(S(=O)(=O)CCCO)CCC3)n2)cc1` [Example 43q, 3-[(2S)-1-hydroxypropan-2-yl]-1-[4-[4-[1-(3-hydroxypropylsulfonyl)cyclobu-tyl]-6-[(3S)-3-methylmorpholin-4-yl]pyrimidin-2-yl]phenyl]urea], 28 nM; as for `C[C@H](CO)NC(=O)Nc1ccc(-c2nc(N3CCOC[C@@H]3C)cc(C3(S(=O)(=O)CCCO)CCC3)n2)cc1` [Example 43r, 3-[(2R)-1-hydroxypropan-2-yl]-1-[4-[4-[1-(3-hydroxypropylsulfonyl)cyclobu-tyl]-6-[(3S)-3-methylmorpholin-4-yl]pyrimidin-2-yl]phenyl]urea], 57.7 nM.

For the origin of these results see patent US20090018134A1, “Compounds - 945” (AstraZeneca AB, priority 2007, published 2009).
